According to the supplement of paper PMC11208160:

Test: recombinant barcode read abundance after kanamycin selection (control-corrected) (log10(CPM+1)); higher = more efficient recombination; sequences stand for … in AGTGCAGAGAAAATCGGCCAGTTTTCTCTGCCTGCAGTCCGCATGCCGT…ATTTATGCAGCGGACTGCCTTTCTCCCAAAGTGATAAACCGGACAGTATCATGGACCGGTTTTCCCGGTAATCCGTATTTGCAAGGTTGGTTTCACT; site = the 11-nt target
How it was run: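 A vector carrying a T7-inducible recombinase and the last 73 bp of the bridge RNA received, by Gibson cloning, oligos encoding a promoter, target, barcode and the first 104 bridge RNA bases under J23119. The pooled constructs entered E. coli together with a donor plasmid by electroporation. Selection used chloramphenicol/ampicillin/kanamycin with 0.1 mM IPTG, with chloramphenicol/ampicillin LB agar as the control, each in two replicates. Recombination efficiency is the averaged, control-corrected counts-per-million of barcodes at recombinant junctions, reported as log10(CPM+1).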

| Sequence | recombinant barcode read abundance (log10) |
| --- | --- |
| TCGCGACAATGGGTTCTAACCTGTTGCCGTT [TCGCGACCTCG_LTGcore_AA_RTGcore_AA] (site TCGCGACCTCG) (LTG core: AA, RTG core: AA) | 0.176 |
| TCGCGACACTGGGTTCTAACCTGTTGCCGAG [TCGCGACCTCG_LTGcore_AC_RTGcore_CT] (site TCGCGACCTCG) (LTG core: AC, RTG core: CT) | 0.0715 |
| TCGCGACCGTGGGTTCTAACCTGTTGCCGAG [TCGCGACCTCG_LTGcore_CG_RTGcore_CT] (site TCGCGACCTCG) (LTG core: CG, RTG core: CT) | 0.392 |
| TCGCGACCTTGGGTTCTAACCTGTTGCCGAT [TCGCGACCTCG_LTGcore_CT_RTGcore_AT] (site TCGCGACCTCG) (LTG core: CT, RTG core: AT) | 0.514 |
| TCGCGACCTTGGGTTCTAACCTGTTGCCGCA [TCGCGACCTCG_LTGcore_CT_RTGcore_TG] (site TCGCGACCTCG) (LTG core: CT, RTG core: TG) | 0.072 |
| TCGCGACCTTGGGTTCTAACCTGTTGCCGCT [TCGCGACCTCG_LTGcore_CT_RTGcore_AG] (site TCGCGACCTCG) (LTG core: CT, RTG core: AG) | 0.0581 |
| TCGCGACCTTGGGTTCTAACCTGTTGCCGGG [TCGCGACCTCG_LTGcore_CT_RTGcore_CC] (site TCGCGACCTCG) (LTG core: CT, RTG core: CC) | 0.283 |
| TCGCGACCTTGGGTTCTAACCTGTTGCCGGT [TCGCGACCTCG_LTGcore_CT_RTGcore_AC] (site TCGCGACCTCG) (LTG core: CT, RTG core: AC) | 0.129 |
| TCGCGACCTTGGGTTCTAACCTGTTGCCGTC [TCGCGACCTCG_LTGcore_CT_RTGcore_GA] (site TCGCGACCTCG) (LTG core: CT, RTG core: GA) | 0.204 |
| TCGCGACGATGGGTTCTAACCTGTTGCCGAG [TCGCGACCTCG_LTGcore_GA_RTGcore_CT] (site TCGCGACCTCG) (LTG core: GA, RTG core: CT) | 0.241 |
| TCGCGACGATGGGTTCTAACCTGTTGCCGTC [TCGCGACCTCG_LTGcore_GA_RTGcore_GA] (site TCGCGACCTCG) (LTG core: GA, RTG core: GA) | 0.123 |
| TCGCGACGCTGGGTTCTAACCTGTTGCCGAG [TCGCGACCTCG_LTGcore_GC_RTGcore_CT] (site TCGCGACCTCG) (LTG core: GC, RTG core: CT) | 0.235 |
| TCGCGACGTTGGGTTCTAACCTGTTGCCGAC [TCGCGACCTCG_LTGcore_GT_RTGcore_GT] (site TCGCGACCTCG) (LTG core: GT, RTG core: GT) | 0.0448 |
| TCGCGACTATGGGTTCTAACCTGTTGCCGAG [TCGCGACCTCG_LTGcore_TA_RTGcore_CT] (site TCGCGACCTCG) (LTG core: TA, RTG core: CT) | 0.0865 |
| TCGCGACTGTGGGTTCTAACCTGTTGCCGCA [TCGCGACCTCG_LTGcore_TG_RTGcore_TG] (site TCGCGACCTCG) (LTG core: TG, RTG core: TG) | 0.419 |
| TCTACCCAATGGGTTCTAACCTGTTGCTGTT [TCTACCCCTCA_LTGcore_AA_RTGcore_AA] (site TCTACCCCTCA) (LTG core: AA, RTG core: AA) | 0.186 |
| TCTACCCATTGGGTTCTAACCTGTTGCTGAG [TCTACCCCTCA_LTGcore_AT_RTGcore_CT] (site TCTACCCCTCA) (LTG core: AT, RTG core: CT) | 0.331 |
| TCTACCCCATGGGTTCTAACCTGTTGCTGTG [TCTACCCCTCA_LTGcore_CA_RTGcore_CA] (site TCTACCCCTCA) (LTG core: CA, RTG core: CA) | 0.0357 |
| TCTACCCCGTGGGTTCTAACCTGTTGCTGAG [TCTACCCCTCA_LTGcore_CG_RTGcore_CT] (site TCTACCCCTCA) (LTG core: CG, RTG core: CT) | 0.0746 |
| TCTACCCCGTGGGTTCTAACCTGTTGCTGCG [TCTACCCCTCA_LTGcore_CG_RTGcore_CG] (site TCTACCCCTCA) (LTG core: CG, RTG core: CG) | 0.0225 |
| TCTACCCCTTGGGTTCTAACCTGTTGCTGAC [TCTACCCCTCA_LTGcore_CT_RTGcore_GT] (site TCTACCCCTCA) (LTG core: CT, RTG core: GT) | 0.169 |
| TCTACCCCTTGGGTTCTAACCTGTTGCTGCG [TCTACCCCTCA_LTGcore_CT_RTGcore_CG] (site TCTACCCCTCA) (LTG core: CT, RTG core: CG) | 0.0367 |
| TCTACCCCTTGGGTTCTAACCTGTTGCTGCT [TCTACCCCTCA_LTGcore_CT_RTGcore_AG] (site TCTACCCCTCA) (LTG core: CT, RTG core: AG) | 0.0324 |

| Sequence | recombinant barcode read abundance (log10) |
| --- | --- |
| TCTACCCCTTGGGTTCTAACCTGTTGCTGGT [TCTACCCCTCA_LTGcore_CT_RTGcore_AC] (site TCTACCCCTCA) (LTG core: CT, RTG core: AC) | 0.0498 |
| TCTACCCCTTGGGTTCTAACCTGTTGCTGTC [TCTACCCCTCA_LTGcore_CT_RTGcore_GA] (site TCTACCCCTCA) (LTG core: CT, RTG core: GA) | 0.0329 |
| TCTACCCCTTGGGTTCTAACCTGTTGCTGTT [TCTACCCCTCA_LTGcore_CT_RTGcore_AA] (site TCTACCCCTCA) (LTG core: CT, RTG core: AA) | 0.07 |
| TCTACCCGATGGGTTCTAACCTGTTGCTGTC [TCTACCCCTCA_LTGcore_GA_RTGcore_GA] (site TCTACCCCTCA) (LTG core: GA, RTG core: GA) | 0.0498 |
| TCTACCCGGTGGGTTCTAACCTGTTGCTGAG [TCTACCCCTCA_LTGcore_GG_RTGcore_CT] (site TCTACCCCTCA) (LTG core: GG, RTG core: CT) | 0.0172 |
| TCTACCCTATGGGTTCTAACCTGTTGCTGAG [TCTACCCCTCA_LTGcore_TA_RTGcore_CT] (site TCTACCCCTCA) (LTG core: TA, RTG core: CT) | 0.0453 |
| TGATACCAATGGGTTCTAACCTGTTGCGTAG [TGATACCCTAC_LTGcore_AA_RTGcore_CT] (site TGATACCCTAC) (LTG core: AA, RTG core: CT) | 0.143 |
| TGATACCACTGGGTTCTAACCTGTTGCGTAG [TGATACCCTAC_LTGcore_AC_RTGcore_CT] (site TGATACCCTAC) (LTG core: AC, RTG core: CT) | 0.135 |
| TGATACCCTTGGGTTCTAACCTGTTGCGTCC [TGATACCCTAC_LTGcore_CT_RTGcore_GG] (site TGATACCCTAC) (LTG core: CT, RTG core: GG) | 0.629 |
| TGATACCCTTGGGTTCTAACCTGTTGCGTCG [TGATACCCTAC_LTGcore_CT_RTGcore_CG] (site TGATACCCTAC) (LTG core: CT, RTG core: CG) | 0.0319 |
| TGATACCCTTGGGTTCTAACCTGTTGCGTCT [TGATACCCTAC_LTGcore_CT_RTGcore_AG] (site TGATACCCTAC) (LTG core: CT, RTG core: AG) | 0.133 |
| TGATACCCTTGGGTTCTAACCTGTTGCGTGA [TGATACCCTAC_LTGcore_CT_RTGcore_TC] (site TGATACCCTAC) (LTG core: CT, RTG core: TC) | 0.864 |
| TGATACCCTTGGGTTCTAACCTGTTGCGTGG [TGATACCCTAC_LTGcore_CT_RTGcore_CC] (site TGATACCCTAC) (LTG core: CT, RTG core: CC) | 0.651 |
| TGATACCGATGGGTTCTAACCTGTTGCGTAG [TGATACCCTAC_LTGcore_GA_RTGcore_CT] (site TGATACCCTAC) (LTG core: GA, RTG core: CT) | 0.221 |
| TGATACCGTTGGGTTCTAACCTGTTGCGTAC [TGATACCCTAC_LTGcore_GT_RTGcore_GT] (site TGATACCCTAC) (LTG core: GT, RTG core: GT) | 0.0235 |
| TGATACCGTTGGGTTCTAACCTGTTGCGTAG [TGATACCCTAC_LTGcore_GT_RTGcore_CT] (site TGATACCCTAC) (LTG core: GT, RTG core: CT) | 0.236 |
| TGTATTCACTGGGTTCTAACCTGTTGCCTAG [TGTATTCCTAG_LTGcore_AC_RTGcore_CT] (site TGTATTCCTAG) (LTG core: AC, RTG core: CT) | 0.0447 |
| TGTATTCACTGGGTTCTAACCTGTTGCCTGT [TGTATTCCTAG_LTGcore_AC_RTGcore_AC] (site TGTATTCCTAG) (LTG core: AC, RTG core: AC) | 0.251 |
| TGTATTCCTTGGGTTCTAACCTGTTGCCTAA [TGTATTCCTAG_LTGcore_CT_RTGcore_TT] (site TGTATTCCTAG) (LTG core: CT, RTG core: TT) | 0.0404 |
| TGTATTCCTTGGGTTCTAACCTGTTGCCTGC [TGTATTCCTAG_LTGcore_CT_RTGcore_GC] (site TGTATTCCTAG) (LTG core: CT, RTG core: GC) | 0.133 |
| TGTATTCCTTGGGTTCTAACCTGTTGCCTGG [TGTATTCCTAG_LTGcore_CT_RTGcore_CC] (site TGTATTCCTAG) (LTG core: CT, RTG core: CC) | 0.0432 |
| TGTATTCCTTGGGTTCTAACCTGTTGCCTTT [TGTATTCCTAG_LTGcore_CT_RTGcore_AA] (site TGTATTCCTAG) (LTG core: CT, RTG core: AA) | 0.0134 |
